The test system of test [1] is CRPS. To be noted: ketanserin alone; cited from earlier work.
The subject of the next test is CRPS patients. The experiment in a line: intravenous ketanserin treatment of CRPS patients (bolus plus infusion). The format is in vivo. The protocol:
All i.v. treatments were performed after at least 15 minutes of acclimatisation at constant temperature (20-23° C.). The temperature of the affected limb was recorded with Hewlett Packard electro-skin probe between digit 4 and 5. In addition continues photoplethysmograpy of the affected hand (digit 2) or foot (digit 1), blood pressure and hearth rate were recorded. All patients received a bolus of 10 mg of ketanserin i.v. in a running saline infusion. Ketanserin administration was continued by rate of 4 mg per hour.

For test [2], the system named is CRPS. As to conditions: in vivo; cited from earlier work.
Setting [3] is: after the intravenous treatment with ketanserin.

SMILES strings stand for the structures.

Consider `O=C(c1ccc(F)cc1)C1CCN(CCn2c(=O)[nH]c3ccccc3c2=O)CC1` [ketanserin], for which the “treatment of CRPS symptoms” value in the test on CRPS [1] was “possible to treat most of symptoms, but not those caused by hyperpathia and allodinia”. Further, in the test on CRPS patients (setting [3]), the skin temperature result is given as “normalised” and the “symptom of small vein” value is recorded as “disappeared”. For the same compound, in the test with CRPS patients (all patients, after the intravenous treatment with ketanserin (10 mg bolus, then 4 mg per hour)), the “peripheral circulation of the affected limb” value is “normalised”.
`C[S+](C)[O-]` [dimethyl sulfoxide]: in the test with CRPS [2], the “efficacy of therapeutic treatment in CRPS” value is reported as “efficacious only during acute CRPS”; the “therapeutic result for symptoms caused by hyperpathia and allodinia” value is on record as “without any therapeutic result”.

These data come from patent publication US20040209906A1, “Composition comprising ketanserin AND AN ALKANOYL L-CARNITINE FOR THE TREATMENT OF CRPS” (Sigma-Tau industrie Farmaceutiche Riunite S.p.A., priority 1998, published 2004).
